{"source": "patent US20100041089A1", "about": "“IMPROVED METHOD FOR DETECTING CHEMICAL […]” (priority 2006, published 2010)", "tested_on": "yeast genes (expressed mRNA)", "test": "DNA chip measurement of expressed mRNA of yeast genes after culture with a toxic chemical substance", "type": "cell-based, Saccharomyces cerevisiae S288C", "protocol": "Yeast (Saccharomyces cerevisiae S288C (a SUC2mal mel gap2 CUP1)) were cultured at 25° C. on YPD medium (yeast extract 1%, polypeptone 2%, glucose 2%). One of toxic chemical substances was added to the cell at logarithmic growth phase, and the cell was further cultured for two hours. Cell was cultured without any chemical substance in the same condition, and was used as a control. Concentrations of the chemical substances were defined to inhibit the growth of the yeast but not lead to death.\nAfter the completion of cultivation, the culture was centrifuged to collect the cells. To the cells, sodium acetate buffer (50 mM sodium acetate, 10 mM EDTA, 1% SDS) was added, and the mixture was shaken at 65° C. for five minutes, followed by returning to room temperature, and obtaining the supernatant, which procedure was repeated two times. To the supernatant, ½ amount of a solution of phenol/chloroform (1:1) was added, and the mixture was centrifuged to give a supernatant, an equal amount of chloroform was added, and the mixture was centrifuged to give a supernatant. To the supernatant, an equal amount of isopropanol containing 0.3 M sodium acetate was added, and the mixture was allowed to stand at room temperature for 30 minutes, after which the mixture was centrifuged to give sediment of the whole RNAs. Seventy % ethanol was added to the sediment, and the mixture was again centrifuged to give sediment, which was then dried and dissolved in water. mRNA was isolated from the whole RNAs as followings. In view of the fact that a poly A chain is attached to the 3′ terminus of mRNA, a polynucleotide having a poly T structure which was immobilized on the surface of latex beads was used to trap the mRNA, and then the mRNA was washed and eluted with spine column (Oligotex-dT30<Super>mRNA Purification Kit, Takara). Reverse transcription of the mRNA was conducted with a reverse transcriptase (Super Script II Reverse Transcriptase; catalogue No. 18064-014, GibcoBRL) using fluorescence-labeled nucleotides to give cDNAs that were introduced with Cy3-dUTP or Cy5-dUTP during the reverse transcription.\nThe labeled cDNAs were dissolved in TE buffer (10 mM Tris-HCl/1 mM EDTA, pH 8.0), and the solution was dropped on the DNA chip containing the whole genes of yeast (DNA Chip Research Inc. Japan) so that the cDNAs were hybridized on the DNA chip at 65° C. for over 12 hours. The fluoresces intensity of the DNA chip was read with a scanner, and the ratio relative to the fluorescence intensity resulting from the absence of chemical substance was estimated as the following, which is shown in Tables 1 to 9.\nIn the Tables, “Intensity” indicated in the rightmost column is a value of the level of expressed mRNA of each gene in control cells as divided by the average level of the expressions of the whole genes. A gene of which mRNA level is lower in control, and is higher in cases of addition of chemical substance, is especially useful in the detection of toxic substances.\nHere, when a ratio of an amount of mRNA expressed in the presence of the chemical substance to an amount of mRNA expressed in the absence of the chemical substance is two or more, then it is considered significant.", "data": [{"smiles": "CCCCC[C@H](O)CC(=O)CCc1ccc(O)c(OC)c1", "note": "[(13), Gingerol]", "values": [{"measurement": "The level of expressed mRNA in the presence of chemical substance/The level of expressed mRNA in the absence of chemical substance", "setting": "yeast gene YKL065C, cultured two hours with substance", "result": 3.0}, {"measurement": "level of expressed mRNA in the presence of chemical substance / level in the absence of chemical substance", "setting": "yeast gene YKL097C, cultured two hours with the chemical substance", "result": 0.9}, {"measurement": "level of expressed mRNA in the presence of chemical substance / level in the absence of chemical substance", "setting": "yeast gene YKL100C, cultured two hours with the chemical substance", "result": 1.3}, {"measurement": "The level of expressed mRNA in the presence of chemical substance/The level of expressed mRNA in the absence of chemical substance", "setting": "yeast gene YKL153W, cultured two hours with substance", "result": 2.4}, {"measurement": "The level of expressed mRNA in the presence of chemical substance/The level of expressed mRNA in the absence of chemical substance", "setting": "yeast gene YKL194C, mitochondria-located protein gene, cultured two hours with substance", "result": 1.1}, {"measurement": "The level of expressed mRNA in the presence of chemical substance/The level of expressed mRNA in the absence of chemical substance", "setting": "yeast gene YKL218C", "result": 5.1}, {"measurement": "The level of expressed mRNA in the presence of chemical substance/The level of expressed mRNA in the absence of chemical substance", "setting": "yeast gene YKR018C, cultured two hours with substance", "result": 3.0}, {"measurement": "level of expressed mRNA in the presence of chemical substance / level in the absence of chemical substance", "setting": "yeast gene YKR040C, cultured two hours with the chemical substance", "result": 0.6}, {"measurement": "The level of expressed mRNA in the presence of chemical substance/The level of expressed mRNA in the absence of chemical substance", "setting": "yeast gene YKR046C, cultured two hours with substance", "result": 2.8}, {"measurement": "The level of expressed mRNA in the presence of chemical substance/The level of expressed mRNA in the absence of chemical substance", "setting": "yeast gene YKR075C, cultured two hours with substance", "result": 3.8}, {"measurement": "The level of expressed mRNA in the presence of chemical substance/The level of expressed mRNA in the absence of chemical substance", "setting": "yeast gene YLL041C, mitochondria-located protein gene, cultured two hours with substance", "result": 1.0}, {"measurement": "The level of expressed mRNA in the presence of chemical substance/The level of expressed mRNA in the absence of chemical substance", "setting": "yeast gene YLR041W, cultured two hours with the chemical substance", "result": 0.3}, {"measurement": "The level of expressed mRNA in the presence of chemical substance/The level of expressed mRNA in the absence of chemical substance", "setting": "yeast gene YLR217W, cultured two hours with substance", "result": 3.8}, {"measurement": "level of expressed mRNA in the presence of chemical substance / level in the absence of chemical substance", "setting": "yeast gene YLR226W, cultured two hours with the chemical substance", "result": 0.7}, {"measurement": "level of expressed mRNA in the presence of chemical substance / level in the absence of chemical substance", "setting": "yeast gene YLR338W, cultured two hours with the chemical substance", "result": 1.2}, {"measurement": "The level of expressed mRNA in the presence of chemical substance/The level of expressed mRNA in the absence of chemical substance", "setting": "yeast gene YLR340W", "result": 0.1}, {"measurement": "The level of expressed mRNA in the presence of chemical substance/The level of expressed mRNA in the absence of chemical substance", "setting": "yeast gene YLR350W, cultured two hours with substance", "result": 4.5}, {"measurement": "The level of expressed mRNA in the presence of chemical substance/The level of expressed mRNA in the absence of chemical substance", "setting": "yeast gene YLR387C, cultured two hours with substance", "result": 3.6}, {"measurement": "The level of expressed mRNA in the presence of chemical substance/The level of expressed mRNA in the absence of chemical substance", "setting": "yeast gene YLR388W", "result": 0.1}, {"measurement": "level of expressed mRNA in the presence of chemical substance / level in the absence of chemical substance", "setting": "yeast gene YLR392C, cultured two hours with the chemical substance", "result": 1.4}, {"measurement": "level of expressed mRNA in the presence of chemical substance / level in the absence of chemical substance", "setting": "yeast gene YLR415C, cultured two hours with the chemical substance", "result": 1.0}, {"measurement": "level of expressed mRNA in the presence of chemical substance / level in the absence of chemical substance", "setting": "yeast gene YLR427W, cultured two hours with the chemical substance", "result": 2.5}, {"measurement": "level of expressed mRNA in the presence of chemical substance / level in the absence of chemical substance", "setting": "yeast gene YML013W, cultured two hours with the chemical substance", "result": 1.2}, {"measurement": "level of expressed mRNA in the presence of chemical substance / level in the absence of chemical substance", "setting": "yeast gene YML029W, cultured two hours with the chemical substance", "result": 2.0}, {"measurement": "level of expressed mRNA in the presence of chemical substance / level in the absence of chemical substance", "setting": "yeast gene YML041C, cultured two hours with the chemical substance", "result": 1.2}, {"measurement": "The level of expressed mRNA in the presence of chemical substance/The level of expressed mRNA in the absence of chemical substance", "setting": "yeast gene YML054C, cultured for two hours with substance", "result": 2.8}, {"measurement": "level of expressed mRNA in the presence of chemical substance / level in the absence of chemical substance", "setting": "yeast gene YML079W, cultured two hours with the chemical substance", "result": 1.6}, {"measurement": "The level of expressed mRNA in the presence of chemical substance/The level of expressed mRNA in the absence of chemical substance", "setting": "yeast gene YML100W, cultured for two hours with substance", "result": 3.8}, {"measurement": "level of expressed mRNA in the presence of chemical substance / level in the absence of chemical substance", "setting": "yeast gene YMR068W, cultured two hours with the chemical substance", "result": 1.4}, {"measurement": "level of expressed mRNA in the presence of chemical substance / level in the absence of chemical substance", "setting": "yeast gene YMR071C, cultured two hours with the chemical substance", "result": 1.3}, {"measurement": "The level of expressed mRNA in the presence of chemical substance/The level of expressed mRNA in the absence of chemical substance", "setting": "yeast gene YMR095C, cultured two hours with substance", "result": 3.4}, {"measurement": "level of expressed mRNA in the presence of chemical substance / level in the absence of chemical substance", "setting": "yeast gene YMR160W, cultured two hours with the chemical substance", "result": 1.6}, {"measurement": "The level of expressed mRNA in the presence of chemical substance/The level of expressed mRNA in the absence of chemical substance", "setting": "yeast gene YMR191W, cultured two hours with substance", "result": 3.4}, {"measurement": "The level of expressed mRNA in the presence of chemical substance/The level of expressed mRNA in the absence of chemical substance", "setting": "yeast gene YMR203W, mitochondria-located protein gene, cultured two hours with substance", "result": 1.1}, {"measurement": "The level of expressed mRNA in the presence of chemical substance/The level of expressed mRNA in the absence of chemical substance", "setting": "yeast gene YMR210W, cultured two hours with the chemical substance, DNA chip fluorescence ratio", "result": 1.0}, {"measurement": "level of expressed mRNA in the presence of chemical substance / level in the absence of chemical substance", "setting": "yeast gene YNL026W, cultured two hours with the chemical substance", "result": 1.7}, {"measurement": "level of expressed mRNA in the presence of chemical substance / level in the absence of chemical substance", "setting": "yeast gene YNL058C, cultured two hours with the chemical substance", "result": 0.6}, {"measurement": "level of expressed mRNA in the presence of chemical substance / level in the absence of chemical substance", "setting": "yeast gene YNL063W, cultured two hours with the chemical substance", "result": 1.5}, {"measurement": "The level of expressed mRNA in the presence of chemical substance/The level of expressed mRNA in the absence of chemical substance", "setting": "yeast gene YNL069C", "result": 0.1}, {"measurement": "The level of expressed mRNA in the presence of chemical substance/The level of expressed mRNA in the absence of chemical substance", "setting": "yeast gene YNL115C, cultured two hours with substance", "result": 2.5}, {"measurement": "The level of expressed mRNA in the presence of chemical substance/The level of expressed mRNA in the absence of chemical substance", "setting": "yeast gene YNL155W, cultured two hours with substance", "result": 4.4}, {"measurement": "level of expressed mRNA in the presence of chemical substance / level in the absence of chemical substance", "setting": "yeast gene YNL176C, cultured two hours with the chemical substance", "result": 0.6}]}]}
